In PubChem BioAssay AID1626 (SRMLSC, 2009) one finds IC50, IC90 and CC50 data, which are given here for 65 molecules.

This test concerns M. tuberculosis H37Rv growth inhibition. Put plainly: M. tuberculosis H37Rv growth inhibitors, H37Rv strain (AID 1626). Particulars: for IC90: measured here: IC90 against H37Rv; for CC50: measured here: Vero cell cytotoxicity.

For orientation: IC50 means the concentration needed to halve the response being measured. As usually defined, the IC90 is the concentration needed for an effect of 90%. Low readings indicate greater potency, high ones weaker potency. As a reminder, the CC50 is the concentration giving 50% cytotoxicity. A lower CC50 goes with harm at low concentration. Consider `COc1ccc(-c2c(C#N)c(SCC(=O)c3cc4ccccc4oc3=O)nc(C)c2C(=O)Nc2ccccc2)cc1`, for which the concentration for half-maximal inhibition (IC50) was 12.2 µM, the IC90 was determined as 14.2 µM and the cytotoxic concentration (CC50) came out at 3.41 µM.
For the molecule `CCOc1ccc(NC2=C(OC)C(=O)c3ccccc3C2=O)cc1`, the IC50 is 28.3 µM, the IC90 is 44.1 µM and the half-maximal cytotoxic concentration (CC50) was over 40 µM.
With `Cc1cccc(-c2nsc(SCC(=O)NCC3CCCO3)n2)c1` (configuration not stated), the half-inhibitory concentration (IC50) was 1.19 µM and the IC90 stood at 4.2 µM.
As to `CN1c2ccc([N+](=O)[O-])cc2CC2(C(=O)NC(=O)N(c3ccc(Br)cc3)C2=O)C1c1ccccc1` (configuration not stated), the IC50 is 0.964 µM, the IC90 was over 100 µM and the CC50 is over 40 µM.
In turn, `CCOC(=O)c1sc(NC(=O)CSc2ncn[nH]2)c(C#N)c1C` returned a CC50 of over 40 µM.
`COC(=O)CSc1ncnc2c1sc1nc3c(cc12)COC(C)(C)C3`: the concentration for half-maximal inhibition (IC50) is 3.1 µM and the IC90 was determined as 10 µM.
Taken in the same sequence, the figures for `CCc1ccc(NC(=O)CSc2ccccn2)cc1` were 22.1 µM and over 100 µM.
With `Cc1nn(-c2ccccc2)c2c1C(c1ccc([N+](=O)[O-])cc1)N1C(=N2)C(=O)Nc2ccccc21` (configuration not stated), the half-inhibitory concentration (IC50) was 19.1 µM, the IC90 was over 100 µM and the cytotoxic concentration (CC50) was over 40 µM.
Regarding `CNC1=C(N(C(C)=O)c2ccc(Br)cc2)C(=O)c2ccccc2C1=O`, the IC50 is 0.654 µM, the IC90 worked out at 2.54 µM and the CC50 came out at 10 µM.
Taken in the same sequence, the figures for `O=C(Nc1nnc(-c2cccs2)o1)c1cccc(Oc2ccccc2)c1` were under 0.195 µM, 2.67 µM and 34 µM.
Molecule `COc1cc(/C=C(/C#N)C(=O)Nc2ccc(C)cc2)ccc1Oc1nc(Cl)ncc1F` displayed a half-maximal cytotoxic concentration (CC50) of over 40 µM.
On to `COc1ccc(NCc2ccc([N+](=O)[O-])s2)cc1`, for which the half-maximal inhibitory concentration (IC50) is 59.4 µM and the IC90 was over 100 µM.
In the case of `COc1cc(OC)c2c(-c3ccccc3)cc(=O)oc2c1C(CCN1CCCC(C)C1)c1ccc2c(c1)OCO2` (configuration not stated), the concentration for half-maximal inhibition (IC50) is 5.64 µM, the concentration for an effect of 90% (IC90) worked out at 10.4 µM and the CC50 worked out at 24.3 µM.
Molecule `O=[N+]([O-])c1ccc(-c2ccc(/C=N/O)o2)cc1` showed an IC90 of over 100 µM.
Take `COc1ccc(Nc2ccccc2N)cc1`: the concentration for half-maximal inhibition (IC50) is 1.05 µM and the concentration for an effect of 90% (IC90) turned out to be 2.46 µM.
On the same counts, the results for `CCOC(=O)COc1ccc2c(=O)c(-c3ccc(OC)c(OC)c3)c(C(=O)OCC)oc2c1` are 2.51 µM and 5.68 µM.
`O=C(Nc1ccc(N2CCOCC2)c(Cl)c1)c1ccc([N+](=O)[O-])o1`: the concentration for half-maximal inhibition (IC50) is 7.54 µM, the 90% effect concentration (IC90) amounted to 11.3 µM and the CC50 amounted to 3.3 µM.
Consider `CC(=O)c1c(C)n(C)c2ccc(O)cc12`, for which the concentration for an effect of 90% (IC90) was over 100 µM.
`COc1ccc2c(c1)CCc1cnc(N)nc1-2`: the IC50 was 69.9 µM, the IC90 is over 100 µM and the CC50 was over 40 µM.
`COC(=O)CSc1nc2c(c(-c3ccc(C)o3)c1C#N)CCCC2`: the IC50 is 2.66 µM and the IC90 came to 3.47 µM.
With `CCn1ccnc1CN(C)Cc1cn(-c2cc(C)ccc2C)nc1-c1ccccc1`, the concentration for half-maximal inhibition (IC50) was 5.88 µM and the IC90 stood at 10.3 µM.
On the same counts, the results for `CCOC(=O)COc1ccc2c(=O)cc(-c3ccccc3)oc2c1` are under 0.195 µM and 0.963 µM.
For `COc1cccc(C(=O)Nc2ccc(-c3nc4ccccc4o3)c(O)c2)c1`, the IC50 was 8.7 µM, the IC90 was over 100 µM and the 50% cytotoxic concentration (CC50) is over 40 µM.
On the same counts, the results for `C=C(C)C1Cc2c(C)nn(-c3nc(C)cc(C)n3)c2C1` (configuration not stated) are 10.1 µM, over 100 µM and over 40 µM.
As to `C/C=C/C(=O)OCC(=O)Nc1ccc(OC)c(Cl)c1`, the IC50 is 20 µM and the IC90 was over 100 µM.
On the same counts, the results for `O=C(CSc1nc(-c2ccccc2Cl)ns1)c1ccc(Cl)cc1` are 8.62 µM and over 100 µM.
On the same counts, the results for `CC(C)c1ccc(CNC(=O)C(=O)Nc2nccs2)cc1` are 49.8 µM and over 100 µM.
Regarding `Cc1ccc2nc(Cl)c3nnnn3c2c1`, the IC50 was 11.9 µM, the IC90 turned out to be 17 µM and the CC50 is over 40 µM.
Taken in the same sequence, the figures for `CC1=Nc2ccccc2/C1=C/c1sc(=N)n(-c2nccs2)c1O` were under 0.195 µM, under 0.195 µM and 14.3 µM.
Regarding `COc1ccc(N2CCN(CC(=O)Nc3nc4c(s3)CC(C)CC4)CC2)cc1` (configuration not stated), the IC50 is 4.42 µM and the concentration for an effect of 90% (IC90) was determined as 49.1 µM.
For the molecule `Cc1[nH]n(-c2ccccc2)c(=O)c1N=Nc1nccs1`, the IC50 is 2.8 µM, the concentration for an effect of 90% (IC90) was 5.14 µM and the 50% cytotoxic concentration (CC50) worked out at 29.5 µM.
With `O=C1c2ccccc2-n2c1nc1ccccc1c2=O`, the IC50 is under 0.195 µM, the IC90 was 0.601 µM and the CC50 was over 40 µM.
On the same counts, the results for `Oc1ccccc1CNc1cnc2ccccc2c1` are 11.1 µM, over 100 µM and over 40 µM.
Molecule `Nc1nnc(SCc2ccc(F)cc2)s1` returned an IC90 of over 100 µM.
In turn, `COc1cc(-c2cc(C(=O)Nc3nc4ccccc4s3)c3ccccc3n2)cc(OC)c1OC` yielded a 90% effect concentration (IC90) of over 100 µM and a cytotoxic concentration (CC50) of over 40 µM.
As to `Cc1nc2ccc(NC(=O)c3ccc(Br)o3)cc2s1`, the concentration for half-maximal inhibition (IC50) is 64.2 µM and the IC90 is over 100 µM.
The molecule `CCOC(=O)c1ccc(-n2c(CCC(=O)O)ccc2-c2cccs2)cc1` displayed a concentration for an effect of 90% (IC90) of over 100 µM.
In the case of `CN1CCN(C2=Cc3ccccc3Sc3cc(F)c(Cl)cc32)CC1`, the half-inhibitory concentration (IC50) is 11.6 µM, the concentration for an effect of 90% (IC90) is 13.2 µM and the CC50 was determined as 36.4 µM.
With `COc1ccc(CCNC(=O)c2c(N)n(CCN3CCOCC3)c3nc4ccccc4nc23)cc1`, the IC50 is 11.3 µM, the 90% effect concentration (IC90) is 19.1 µM and the CC50 was over 40 µM.
With `Cc1ccc(Cl)cc1NC1=C/C(=N\S(=O)(=O)c2cccs2)c2ccccc2C1=O`, the IC50 was 1.91 µM, the IC90 turned out to be 3.21 µM and the CC50 came to 5.83 µM.
On the same counts, the results for `CCCOc1ccc(-c2nc(C#N)c(NCCCn3ccnc3)o2)cc1` are 15 µM, over 100 µM and over 40 µM.
Consider `Cc1ccc(NC(=O)CCSc2nnc(Cc3ccccc3)o2)cc1`, for which the half-maximal inhibitory concentration (IC50) is 16.5 µM and the IC90 was 29.3 µM.
On the same counts, the results for `CC(C)OC(=O)CSc1ncnc2c1cnn2-c1ccccc1` are 8.75 µM and 25.2 µM.
Turning to `COc1ccc(C(=O)CSc2nc(-c3ccccn3)nc(C)c2Cl)cc1`, the concentration for half-maximal inhibition (IC50) is 6.11 µM, the IC90 came out at 6.84 µM and the CC50 was over 40 µM.
Molecule `COc1ccc(N=C2C(=O)Nc3c(C)cccc32)cc1` came in with an IC90 of over 100 µM.
`COc1ccc(Cn2c(SCc3ccc(C)cc3)nc3cc(OC)c(OC)cc3c2=N)cc1Cl`: the IC50 is 2.5 µM, the IC90 stood at 3.09 µM and the CC50 amounted to 3.1 µM.
In the case of `CCCCOC(=O)c1ccc(OC(=O)c2cccnc2)cc1`, the 50% inhibitory concentration (IC50) is 7.04 µM, the concentration for an effect of 90% (IC90) was over 100 µM and the CC50 is over 40 µM.
On the same counts, the results for `Cc1nnc(NC(=O)c2ccc3ccccc3n2)s1` are 42.5 µM, over 100 µM and over 40 µM.
On the same counts, the results for `c1ccc2c(Nc3ccc4c(c3)OCCO4)c3c(nc2c1)CCCC3` are 11.3 µM, 29.1 µM and over 40 µM.
As to `CCN1CCN(Cc2ccc(NC(=O)c3cc(NC(=O)c4cncc(-c5ccc(C#N)cc5)c4)cc(OC)c3)cc2C(F)(F)F)CC1`, the half-inhibitory concentration (IC50) was 4.55 µM, the IC90 was found to be 6.7 µM and the cytotoxic concentration (CC50) came to 5.63 µM.
On to `CCCC(=O)OCCNc1cc(Sc2nc3ccccc3[nH]2)c2nonc2c1[N+](=O)[O-]`, for which the IC50 is 68.1 µM, the IC90 was over 100 µM and the CC50 came to 23.5 µM.
Take `O=c1[nH]c(-c2ccccn2)nc2ccccc12`: the IC50 is 5.87 µM, the IC90 worked out at 6.72 µM and the CC50 was over 40 µM.
On the same counts, the results for `Cc1[nH]n2c(=O)c3c(nc2c1-c1ccc(Cl)cc1)CCC3` are 13.3 µM, 31 µM and 19.6 µM.
Taken in the same sequence, the figures for `O=C1c2cccc3cc([N+](=O)[O-])cc(c23)C(=O)N1CCN1CCCC1` were 4.6 µM, 5.71 µM and 1.8 µM.
Take `CCOc1ccc2ncc(S(=O)(=O)c3ccc(C)cc3)c(N3CCC4(CC3)OCCO4)c2c1`: the IC50 was 28.2 µM, the concentration for an effect of 90% (IC90) is over 100 µM and the CC50 was over 40 µM.
Regarding `CSCCC(NC(=O)c1cc([N+](=O)[O-])cc([N+](=O)[O-])c1)c1nc2ccccc2[nH]1` (configuration not stated), the half-maximal inhibitory concentration (IC50) is 5.37 µM and the 90% effect concentration (IC90) came to 5.96 µM.
In the case of `O=C(NC12CC3CC(CC(C3)C1)C2)c1ccc(-c2ccc(Br)cc2)o1`, the IC50 was 6.56 µM, the IC90 turned out to be 12.7 µM and the CC50 came to 35.3 µM.
Regarding `O=C(c1ccccc1)c1c2c(cc3sc4ccccc4[n+]13)-c1cccc3cccc-2c13`, the IC50 is 2.81 µM, the 90% effect concentration (IC90) turned out to be 5.22 µM and the CC50 is 23.1 µM.
Taken in the same sequence, the figures for `O=c1cc(-c2c(F)c(F)c(F)c(F)c2F)oc2ccccc12` were 0.221 µM, 2.3 µM and over 40 µM.
Regarding `CCOC(=O)CSc1ccc(-c2nc3cc(C)c(C)cc3[nH]2)cn1`, the IC50 was 1.09 µM and the IC90 worked out at 2.24 µM.
`CCOC(=O)CSc1cccc2cccnc12` displayed a half-maximal cytotoxic concentration (CC50) of 30.7 µM.
Regarding `CC1CCN(c2ccc(C=O)o2)CC1`, the half-inhibitory concentration (IC50) was 55.9 µM and the IC90 was over 100 µM.
For `O=C(CN1CCN(CC(=O)Nc2ccc(OCc3ccccc3)cc2)CC1)Nc1ccc(F)cc1`, the IC50 is 34.5 µM and the IC90 is over 100 µM.
Consider `CCOC(=O)N1C/C(=C\c2ccccc2)C(=O)/C(=C/c2ccccc2)C1`, for which the half-inhibitory concentration (IC50) was 2.11 µM, the 90% effect concentration (IC90) is over 100 µM and the CC50 stood at 19.3 µM.
With `COc1ccc(N=CC2=C(O)CCCC2=O)cc1`, the 50% inhibitory concentration (IC50) is 45 µM and the 90% effect concentration (IC90) was over 100 µM.
